Measured values from PMC4000408, “No clinically significant drug interactions between lenalidomide and P-glycoprotein substrates and inhibitors: results from controlled phase I studies in healthy volunteers” (Cancer Chemotherapy and Pharmacology, 2014).
Where two headings read alike, the source gives them in different places.

How the values were obtained:
[1] = Study 1: lenalidomide-digoxin pharmacokinetic interaction, double-blind placebo-controlled crossover in healthy subjects; conditions: for T max: median (range)
Experimental: Study 1 was designed as a double-blind, placebo-controlled, randomized, 2-period, crossover trial. Subjects were randomized to receive either lenalidomide 10 mg/day for 7 days in Study Period 1 and the matching placebo for 7 days in Study Period 2, or to receive the same two treatments in the reverse order. […] A 10-day washout separated the study periods.
For analysis of lenalidomide in plasma and urine, the assay ranges were 5–1,000 and 100–20,000 ng/mL, respectively, and the details of methods were described previously. […] C [2, 3] H7]-temsirolimus were quantitatively extracted from whole blood sample by protein precipitation extraction.
Non-compartmental pharmacokinetic parameters were estimated from drug concentration–time profiles. Major pharmacokinetic parameters included C max, time to reach C max (T max), terminal-phase half-life (t 1/2), AUC from time zero to the last measurable concentration (AUCt), AUC from time zero to infinity (AUC∞), cumulative urinary excretion as a percentage of administered dose (fe), and renal clearance (CLR).
An analysis of variance (ANOVA) was performed on the natural log-transformed pharmacokinetic parameters to estimate the percentage ratio of geometric means between treatments, and the 90 % confidence interval (CI) for key pharmacokinetic parameters.

[2] = Study 2, Part 2: lenalidomide-temsirolimus pharmacokinetic interaction, open-label crossover in healthy subjects; assay type: in vivo, human; conditions: for AUC(0-inf) / AUC(0-t) / Cmax / half-life / CL renal / fe (cumulative urinary excretion as a percentage of administered dose): geometric mean (geometric CV %); for Tmax: median (range); for CL renal: plasma and urine, read-out: CLR (renal clearance); for fe (cumulative urinary excretion as a percentage of administered dose): urine
Experimental: Study 2, Part 2 was designed as an open-label, fixed-sequence, 3-period, crossover trial. In Period 1, subjects received a single oral dose of 25 mg lenalidomide; in Period 2, subjects received a single dose of temsirolimus 25 mg via a 30-min intravenous (IV) infusion; and in Period 3, subjects received both a single 25 mg oral dose of lenalidomide and a single 25 mg IV dose of temsirolimus. Pre-treatment with IV diphenhydramine (25 mg) was administered 30 min prior to start of each temsirolimus infusion. There was a 7–10 day washout between Study Periods 1 and 2, and a minimum 14-day washout between Study Periods 2 and 3.

[3] = set-up: method as in ref 15 = [15]; PMID 21825263; doi:10.1200/JCO.2010.32.4962; 15. Hofmeister CC Yang X Pichiorri F Chen P Rozewski DM Johnson AJ Lee S Liu Z Garr CL Hade EM Ji J Schaaf LJ Benson DM Jr Kraut EH Hicks WJ Chan KK Chen CS Farag SS Grever MR Byrd JC Phelps MA Phase; conditions: MM patients, cited from earlier work
[4] = Study 2, Part 1: lenalidomide-quinidine pharmacokinetic interaction, open-label crossover in healthy subjects; assay type: in vivo, human; conditions: for fe (cumulative urinary excretion as a percentage of administered dose): urine
Experimental: Study 2, Part 1 was designed as an open-label, fixed-sequence, 2-period, crossover trial. In Period 1, subjects received a single oral dose of 25 mg lenalidomide. […] Study periods were separated by a washout of 7–10 days. In both periods, serial blood samples were collected, and urine samples were pooled over specified intervals for up to 48-h post-lenalidomide dosing to determine plasma and urine lenalidomide concentrations.

[5] = Safety evaluation in the phase I studies (AEs, laboratory values, ECG, vital signs); assay type: in vivo, human; conditions: lenalidomide given with digoxin, quinidine or temsirolimus vs lenalidomide alone or with placebo
Experimental: Safety was evaluated throughout each study by monitoring AEs, physical examinations, vital signs, clinical laboratory values, and 12-lead electrocardiogram results and was summarized using descriptive statistics.

human P-gp = test system: human P-gp; set-up: method as in ref 14, 15 = [14]; 14. Kumar GN, Surapaneni S, Lau H, Laskin O, Fox L (2008) Interaction of lenalidomide with human drug transporters in vitro [abstract 381]. ISSX Online Abstracts Supplement 3 (No. 3). Presented at the || [15]; PMID 21825263; doi:10.1200/JCO.2010.32.4962; 15. Hofmeister CC Yang X Pichiorri F Chen P Rozewski DM Johnson AJ Lee S Liu Z Garr CL Hade EM Ji J Schaaf LJ Benson DM Jr Kraut EH Hicks WJ Chan KK Chen CS Farag SS Grever MR Byrd JC Phelps MA Phase; conditions: monolayers of LLC-PK1 and MDCKII cell lines expressing human P-gp; cited from earlier work
P-gp = conditions: up to a concentration of 300 μM, P-gp expressing LLC-PK1 cell line; cited from earlier work
[6] = cited from earlier work
[7] = set-up: method as in PMID 22213235; conditions: cited from earlier work
CYP3A4 = conditions: cited from earlier work
human P-gp transporters = conditions: read-out: Ki for inhibiting human P-gp transporters in vitro; cited from earlier work
[8] = human, temsirolimus 25 mg IV + lenalidomide 25 mg (n = 11), whole blood
[9] = human, temsirolimus 25 mg IV alone (n = 14), whole blood
[10] = human, oral, lenalidomide 25 mg alone (n = 14), plasma, geometric mean (geometric CV %)
[11] = human, oral, lenalidomide 25 mg alone (n = 17), plasma
[12] = human, lenalidomide 25 mg + temsirolimus 25 mg IV (n = 11), plasma

Question: Which results are given for C[C@H]1O[C@@H](O[C@H]2[C@@H](O)C[C@H](O[C@H]3[C@@H](O)C[C@H](O[C@H]4CC[C@@]5(C)[C@H](CC[C@@H]6[C@@H]5C[C@@H](O)[C@]5(C)[C@@H](C7=CC(=O)OC7)CC[C@]65O)C4)O[C@@H]3C)O[C@@H]2C)C[C@H](O)[C@@H]1O [Digoxin]?
Answer: T max ([1]; digoxin 0.5 mg + lenalidomide 10 mg/day (n = 17), plasma): 1.0 (1–3) h; T max ([1]; digoxin 0.5 mg alone (with placebo) (n = 17), plasma): 1.0 (1–3) h; AUC(0-inf) ([1]; human, plasma, oral, 0.5 mg): 26.3 ng·h/mL; AUC(0-t) ([1]; human, plasma, oral, 0.5 mg): 19.1 ng·h/mL; Cmax ([1]; human, plasma, oral, 0.5 mg): 1.69 ng/mL; half-life ([1]; human, plasma, oral, 0.5 mg): 1940 min

Question: Which “90 % CIs for the ratio of geometric means, temsirolimus alone vs temsirolimus plus lenalidomide, for C max and AUCt” value ([2]; human, in vivo) does the source give for CO[C@H]1C[C@@H]2CC[C@@H](C)[C@@](O)(O2)C(=O)C(=O)N2CCCC[C@H]2C(=O)O[C@H]([C@H](C)C[C@@H]2CC[C@@H](OC(=O)C(C)(CO)CO)[C@H](OC)C2)CC(=O)[C@H](C)/C=C(\C)[C@@H](O)[C@@H](OC)C(=O)[C@H](C)C[C@H](C)/C=C/C=C/C=C/1C [Temsirolimus] here?
Answer: completely contained within the limits l of 80 and 125%

Question: And the AUC(0-inf) [2, 8]?
Answer: 2710 ng·h/mL

Question: And the AUC(0-t) [2, 8]?
Answer: 2570 ng·h/mL

Question: What about the Cmax [2, 8] of the same compound?
Answer: 649 ng/mL

Question: What about the half-life [2, 8] of the same compound?
Answer: 912 min

Question: What about the Tmax [2, 8] of the same compound?
Answer: 28.2 min

Question: And the AUC(0-inf) [2, 9]?
Answer: 2800 ng·h/mL

Question: And the AUC(0-t) [2, 9]?
Answer: 2670 ng·h/mL

Question: What about the Cmax [2, 9] of the same compound?
Answer: 586 ng/mL

Question: What about the half-life [2, 9] of the same compound?
Answer: 918 min

Question: What about the Tmax [2, 9] of the same compound?
Answer: 28.2 min

Question: What about the “C max and AUC of temsirolimus with increasing doses of lenalidomide” value ([3]; temsirolimus 15 mg/day, lenalidomide 15–25 mg/day) of the same compound?
Answer: increase

Question: Which results are given for Nc1cccc2c1CN(C1CCC(=O)NC1=O)C2=O (stereo not shown) [Lenalidomide]?
Answer: 90 % CIs for the ratio of geometric means, lenalidomide alone vs plus an interacting drug, for Cmax and AUC in plasma ([1]; human, in vivo): completely contained within the limits of 80 and 125%; Median time of observed Cmax of lenalidomide ([1]; human, in vivo): 0.5 to 1 h; AUC(0-inf) ([1]; human, in vivo, 10 mg): 475 ng·h/mL; AUC(0-t) ([1]; human, in vivo, 10 mg): 396 ng·h/mL; Cmax ([1]; human, in vivo, 10 mg): 119 ng/mL; Tmax ([1]; human, in vivo, 10 mg): 1 h; half-life ([1]; human, in vivo, 10 mg): 144 min; AUC(0-inf) [4, 10]: 1360 ng·h/mL; AUC(0-t) [4, 10]: 1290 ng·h/mL; half-life [4, 10]: 169 min; Cmax ([4]; human, oral, lenalidomide 25 mg alone (n = 14), plasma, geometric mean (geometric CV %), read-out: Cmax): 367 ng/mL; Tmax ([4]; human, oral, lenalidomide 25 mg alone (n = 14), plasma, median (range)): 1 h; CL renal ([4]; human, plasma and urine, oral, lenalidomide 25 mg alone (n = 14), geometric mean (geometric CV %), read-out: CLR (renal clearance)): 227 mL/min; 90 % CIs for the ratio of geometric means, lenalidomide alone vs plus an interacting drug, for renal clearance ([4]; interacting drug quinidine or temsirolimus (Study 2)): completely contained within the limits of 80 and 125%; fe (cumulative urinary excretion as a percentage of administered dose) ([4]; lenalidomide 25 mg + quinidine (n = 14), geometric mean (geometric CV %)): 70.2 (6.6) % dose; fe (cumulative urinary excretion as a percentage of administered dose) ([4]; lenalidomide 25 mg alone (n = 14), geometric mean (geometric CV %)): 74.2 (11.4) % dose; Time by which urinary excretion of unchanged lenalidomide was nearly complete ([4]; post-dose, under all treatment conditions (alone, + quinidine, + temsirolimus)): ≤ 12 h; AUC(0-inf) [2, 11]: 1350 ng·h/mL; AUC(0-t) [2, 11]: 1280 ng·h/mL; Cmax [2, 11]: 364 ng/mL; half-life [2, 11]: 169 min; Tmax [2, 11]: 30 min; CL renal ([2]; human, oral, lenalidomide 25 mg alone (n = 17)): 251 mL/min; CL renal ([2]; human, lenalidomide 25 mg + temsirolimus 25 mg IV (n = 11)): 229 mL/min; AUC(0-inf) [2, 12]: 1440 ng·h/mL; AUC(0-t) [2, 12]: 1370 ng·h/mL; Cmax [2, 12]: 361 ng/mL; half-life [2, 12]: 161 min; Tmax [2, 12]: 60 min; fe (cumulative urinary excretion as a percentage of administered dose) ([2]; lenalidomide 25 mg + temsirolimus 25 mg IV (n = 11)): 79.6 (8.0) % dose; fe (cumulative urinary excretion as a percentage of administered dose) ([2]; lenalidomide 25 mg alone (n = 17)): 81.0 (10.0) % dose; Number of subjects reporting AEs, or number of AEs reported [5]: no apparent increase; Efflux ratio (human P-gp): approximately 3; Inhibition of P-gp-dependent transport of digoxin (P-gp): did not inhibit; Absorption after oral administration [6]: > 90%; Administered dose eliminated by renal excretion of the unchanged drug [6]: Approximately 80%; Bioavailability ([6]; known high bioavailability): > 90%; Lenalidomide AUC with itraconazole relative to other MM patients receiving lenalidomide alone ([7]; MM patient, lenalidomide 10 mg/day + itraconazole 100 mg/day vs lenalidomide 25 mg/day alone): 12 fold; Elimination half-life (t 1/2) ([7]; with itraconazole): 5.5 h; Elimination half-life (t 1/2) ([7]; without itraconazole): 6.7 h; C max and AUC of lenalidomide with increasing doses of temsirolimus ([3]; lenalidomide 25 mg/day, temsirolimus 15–20 mg/day): increase; CYP3A4 substrate, inhibitor or inducer status (CYP3A4): not a substrate, inhibitor, or inducer of CYP3A4

Question: Which results are given for C=C[C@H]1C[N@@]2CC[C@H]1C[C@@H]2[C@@H](O)c1ccnc2ccc(OC)cc12 [Quinidine]?
Answer: Estimated mean C max for unbound quinidine ([4]; assuming 15 % of unbound drug): approximately 1 μM; Cmax ([4]; human, oral, 600 mg twice daily, plasma, Day 4, CV % 24.3): 2350 ng/mL; Mean quinidine trough concentration ([4]; plasma, Days 4–5, quinidine sulfate 600 mg twice daily): 1,705 ng/mL; Ki (human P-gp transporters): 900 nM
